# Data published in patent US9072766B2, “Methods of treating obesity by inhibiting nicotinamide N-methyl transferase (NNMT)” (Beth Israel Deaconess Medical Center, Inc., priority 2010, dated 2015).
# Key:
# Type in all cases: cell-based
# 3T3-L1 adipocytes [1] = assay: Glucose uptake in 3T3-L1 adipocytes
# Description: 3T3-L1 were grown in Dulbecco's Modified Eagle's Medium (Gib-co/Invitrogen, Carlsbad, Calif., USA) with 4.5 g/l glucose and 10% fetal bovine serum. Differentiation was induced in two-day-postconfluent cells by supplementing the media with 1 μM insulin, 100 nM dexamethasone, and 500 μM isobutylmethylxanthine for 48 hours, followed by media supplemented with 1 μM insulin for another 48 hours, then normal media until differentiation day 10. Fully differentiated 3T3-L1 adipocytes (day 10) in 48-well plates were serum-starved for 1 hour before incubation with Krebs-Ringer-HEPES (KRH) buffer with or without 10 nM insulin for 30 minutes, followed by addition of 1 mM, 100 nCi [3H]-2-deoxyglucose for 10 minutes. Uptake was stopped by lysing the cells with 0.1% sodium dodecyl sulfate (SDS). Lysates were transferred to liquid scintillation cocktail (Fisher […] 50% Plus) and counted in a Beckman LS counter.
# 3T3-L1 adipocytes [2] = assay: Lipolysis in 3T3-L1 adipocytes (glycerol release); conditions: cultured 3T3-L1 adipocytes (FIG. 13A)
# Description: 3T3-L1 were grown in Dulbecco's Modified Eagle's Medium (Gib-co/Invitrogen, Carlsbad, Calif., USA) with 4.5 g/l glucose and 10% fetal bovine serum. Differentiation was induced in two-day-postconfluent cells by supplementing the media with 1 μM insulin, 100 nM dexamethasone, and 500 μM isobutylmethylxanthine for 48 hours, followed by media supplemented with 1 μM insulin for another 48 hours, then normal media until differentiation day 10.
# Fully differentiated 3T3-L1 adipocytes (day 10) in 48-well plates were washed, and 100 μl of KRH buffer with 3% BSA and 4 g/l D-glucose with or without 100 nM isoproterenol was added to each well. After 1 hour at 37° C./5% CO2 a 50 μl aliquot from each well was transferred to a 96-well plate; 50 μl of lipolysis assay buffer (Cayman Chemical) were added, and the plate was incubated at room temperature, protected from light, for 30 min. Absorption was measured at 540 nm. A standard curve was included on each plate to allow calculation of the glycerol concentration in the supernatants.
# 3T3-L1 adipocytes [3] = assay: Oxygen consumption of 3T3-L1 adipocytes
# Description: 3T3-L1 were grown in Dulbecco's Modified Eagle's Medium (Gib-co/Invitrogen, Carlsbad, Calif., USA) with 4.5 g/l glucose and 10% fetal bovine serum. Differentiation was induced in two-day-postconfluent cells by supplementing the media with 1 μM insulin, 100 nM dexamethasone, and 500 μM isobutylmethylxanthine for 48 hours, followed by media supplemented with 1 μM insulin for another 48 hours, then normal media until differentiation day 10. Oxygen consumption was measured with a Rank Brothers oxygen electrode (Rank Brothers Ltd., Cambridge, UK). Cultured cells were trypsinized, counted in a hemocytometer, spun down, and resuspended in respiration buffer (PBS, 2% BSA, 4.5 g/l glucose, 120 mg/l sodium pyruvate) to 1E6/ml. Partial oxygen pressure was recorded using a Rank Brothers digital model 10 and a PowerLab 4/30 data acquisition system (ADInstruments, Colorado Springs, Colo.).
structure (smiles),measurement,setting,value
CNC(=O)c1cccnc1 [N-methylnicotinamide],insulin-dependent glucose uptake,3T3-L1 adipocytes [1]; 3T3-L1 adipocytes (FIG. 13B),stimulated
same,basal glucose uptake,3T3-L1 adipocytes [1]; no insulin (FIG. 15B),stimulated
same,submaximally insulin-induced glucose uptake,3T3-L1 adipocytes [1]; submax insulin (FIG. 15C),stimulated
same,"glucose uptake, co-administration with DFMO relative to DFMO alone",3T3-L1 adipocytes [1]; submax insulin stimulation (FIG. 15C),increase
same,lipolysis (glycerol released into the culture supernatant),3T3-L1 adipocytes [2],increased
same,oxygen consumption in differentiated 3T3-L1 adipocytes,3T3-L1 adipocytes [3]; FIG. 12C,increased
same,oxygen consumption (FIG. 15A),"3T3-L1 adipocytes [3]; text: cultured hepatoma cells, legend: 3T3-L1 adipocytes",stimulated
